Experimental data as given in patent publication US20010044445A1, “AZOLE INHIBITORS OF CYTOKINE PRODUCTION” (priority 1999, published 2001).
pIC50: −log10 of the molar value. Read-outs that look alike come from different tables or passages of the source.

System: Human peripheral blood mononuclear cells
Experiment: Human Concanavalin-A Proliferation Assay (Con HU Assay)
Type: cell-based
Details: concanavalin-A stimulated human PBMC; for % Inhibition of proliferation (at concentrations of 1,10, or 100 μm) / inhibition at 100 µM / inhibition at 1 µM / inhibition at 10 µM: 3 days; for inhibition at 100 µM / inhibition at 1 µM / inhibition at 10 µM: 72 h, read-out: % Inhibition of proliferation (at concentrations of 1,10, or 100 μm); for pIC50: tritiated thymidine
Method: Human peripheral blood mononuclear cells were cultured in RPMI 1640 medium supplemented with 10 μg/ml gentamicin, 50 μM 2-mercaptoethanol, 1X MEM non-essential amino acids (Sigma Chemical Co., St. Louis, Mo.), 100 U/ml sodium penicillin G, 100 μg/ml streptomycin sulfate, 2 mM L-glutamine, 1 mM sodium pyruvate (Life Technologies, Grand Island, N.Y.) and 10% fetal bovine serum (Hyclone, Logan, Utah) at 37° C. with 5% CO2.
The procedure in Current Protocols in Immunology, Volume 1, Published by the Greene Publishing Associates and John Wiley & Sons, Inc, Edited by Richard Coico, 1994, hereby incorporated by reference, was followed. Briefly, 50 ml of blood from human volunteers was collected in heparinized syringes and mixed. Blood was diluted 1:1 in Dulbecco's phosphate buffered saline (D-PBS) (Life Technologies, Grand Island, N.Y.) and mixed. PBS-blood mixture was overlaid into 50 ml centrifuge tubes containing 15 ml Histopaque 1077 (Sigma Chemical Co., St. Louis, Mo.) and centrifuged at 500 X G for 30 minutes at room temperature. Cells at the interface from each Histopaque tube were removed and mixed with 5 ml of D-PBS. Each cell suspension was diluted to 50 ml with D-PBS, mixed and centrifuged at 400 X G for 15 minutes at room temperature. After most of the supernatant was removed, cells were resuspended to 40 ml with D-PBS per tube (2 tubes per donor). Cells were centrifuged at 400 X G for 10 minutes at room temperature. Pellets were resuspended in 10 ml of supplemented RPMI 1640 and cell number determined with a Coulter counter. Cells were diluted to a concentration of 0.5×10^6 cells per mL.
The procedure in Current Protocols in Immunology, Volume 1, Published by the Greene Publishing Associates and John Wiley & Sons, Inc, Edited by Richard Coico, 1994, hereby incorporated by reference, was followed. Briefly, test compounds were added to appropriate wells on 96-well tissue culture plates (Corning Glass Works, Corning, N.Y.) in 20 µl of supplemented RPMI 1640. Human peripheral blood mononuclear cells were added to each well in 100 μl volumes (final cell concentration equal to 50,000 cells per well). After 15 minutes, 100 μl of 5 μg/ml concanavalin-A (Sigma Chemical Co., St. Louis, Mo.) in supplemented RPMI 1640 was added to a final concentration of 2.5 μg/ml. Plates were incubated for 3 days at 37° C. with 5% CO2. On day 3, plates were pulsed with 0.5 μCi/well tritiated thymidine (New England Nuclear, Boston, Mass.). After 6 hours, plates were harvested on a Tomatec 96-well havester (Orange, Conn.). Glass filter mats were counted on a Matrix 9600 direct beta counter (Packard, Meriden, Conn.).

[1] = concentration 1 μm (in parentheses in the cell)
[2] = Homo sapiens, PBMC, concentration 100 μm (in parentheses in the cell)
[3] = Homo sapiens, PBMC, concentration 1 μm (in parentheses in the cell)
[4] = Homo sapiens, PBMC, concentration 10 μm (in parentheses in the cell)
[5] = concentration 100 μm (in parentheses in the cell)

## CC1(C)C(C(=O)Nc2ccc(-n3nc(C(F)(F)F)cc3C(F)(F)F)cc2)C1(C)C [Example 2, N-[4-[3,5-bis(trifluoromethyl)-1H-pyrazol-1-yl]phenyl]-2.2.3.3-tetramethylcyclopropanecarboxamide]
[1]
  % Inhibition of proliferation (at concentrations of 1,10, or 100 μm): 1(1) %

## O=S(=O)(Nc1ccc(-n2nc(C(F)(F)F)cc2C(F)(F)F)cc1)c1cc(F)cc(F)c1 [Example 5, N-[4-[3,5-bis(trifluoromethyl)-1H-pyrazol-1-yl]phenyl]-3,5-difluorobenzenesulfonamide]
[2]
  inhibition at 100 µM: 100%
Homo sapiens, PBMC
  pIC50: 4.47

## O=C(CCCC[C@@H]1SC[C@@H]2NC(=O)N[C@@H]21)Nc1ccc(-n2nc(C(F)(F)F)cc2C(F)(F)F)cc1 [Example 23, 3a(S)-(3aα,4β,6aα)-N-[4-[3,5-bis(trifluoromethyl)-1H-pyrazol-1-yl]phenyl]hexahydro-2-oxo-1H-thieno[3,4-d]limidazole-4-pentanamide]
[1]
  % Inhibition of proliferation (at concentrations of 1,10, or 100 μm): 4(1) %

## O=C(Nc1ccc(-n2nc(C(F)(F)F)cc2C(F)(F)F)cc1)C1CC2C=CC1C2 (stereo not shown) [Example 26, N-[4-[3,5-bis(trifluoromethyl)-1H-pyrazol-1-yl]phenyl]bicyclo[2.2.1]hept-5-ene-2-carboxamide]
[3]
  inhibition at 1 µM: 24%

## CC1CCCCC1C(=O)Nc1ccc(-n2nc(C(F)(F)F)cc2C(F)(F)F)cc1 (stereo not shown) [Example 27, N-[4-[3,5-bis(trifluoromethyl)-1H-pyrazol-1-yl]phenyl]-2-methylcyclohexanecarboxamide]
[4]
  inhibition at 10 µM: 100%
Homo sapiens, PBMC
  pIC50: 6.52

## Cc1ccc([N+](=O)[O-])cc1NC(=O)Nc1ccc(-n2nc(C(F)(F)F)cc2C(F)(F)F)cc1 [Example 50]
[1]
  % Inhibition of proliferation (at concentrations of 1,10, or 100 μm): 2(1) %

## O=C(Nc1ccc(-n2nc(C(F)(F)F)cc2C(F)(F)F)cc1)C1C=CCCC1 (stereo not shown) [Example 53, N-[4-[3,5-bis(trifluoromethyl)-1H-pyrazol-1-yl]phenyl]-2-cyclohexane-1-carboxamide]
  pIC50: 6.69
[5]
  % Inhibition of proliferation (at concentrations of 1,10, or 100 μm): 99(100) %

## CC1CCC(C(=O)Nc2ccc(-n3nc(C(F)(F)F)cc3C(F)(F)F)cc2)CC1 (stereo not shown) [Example 54, N-[4-[3,5-bis(trifluoromethyl)-1H-pyrazol-1-yl]phenyl]-4-methylcyclohexanecarboxamide]
[3]
  inhibition at 1 µM: 12%

## O=C(Nc1ccc(-n2nc(C(F)(F)F)cc2C(F)(F)F)cc1)c1cccc2ccccc12 [Example 66, N-[4-[3,5-bis(trifluoromethyl)-1H-pyrazol-1-yl]phenyl]-1-naphthylenecarboxamide]
  pIC50: 5.98
[5]
  % Inhibition of proliferation (at concentrations of 1,10, or 100 μm): 97(100) %

## Cc1cc(Br)ccc1NC(=O)Nc1ccc(-n2nc(C(F)(F)F)cc2C(F)(F)F)cc1 [Example 77, N-[4-[3,5-bis(trifluoromethyl)-1H-pyrazol-1-yl]phenyl]-N′-(4-bromo-2-methylphenyl)urea]
[4]
  inhibition at 10 µM: 93%
Homo sapiens, PBMC
  pIC50: 6.18

## CN(C(=O)c1ccccc1Cl)c1ccc(-n2nc(C(F)(F)F)cc2C(F)(F)F)cc1 [Example 80, N-[4-[3,5-bis(trifluoromethyl)-1H-pyrazol-1-yl]phenyl]-2-chloro-N-methylbenzamide]
[3]
  inhibition at 1 µM: 43%

## CN(C(=O)c1ccc([N+](=O)[O-])cc1Cl)c1ccc(-n2nc(C(F)(F)F)cc2C(F)(F)F)cc1 [Example 81, N-[4-[3,5-bis(trifluoromethyl)-1H-pyrazol-1-yl]phenyl]-2-chloro-4-nitro-N-methylbenzamide]
[3]
  inhibition at 1 µM: 30%

## CN(C)c1ccccc1C(=O)Nc1ccc(-n2nc(C(F)(F)F)cc2C(F)(F)F)cc1 [Example 86, N-[4-[3,5-bis(trifluoromethyl)-1H-pyrazol-1-yl]phenyl]-2-(dimethylamino)benzamide]
[3]
  inhibition at 1 µM: 33%

## N#Cc1cccc(NCc2ccc(-n3nc(C(F)(F)F)cc3C(F)(F)F)cc2)c1 [Example 95, 3-[4-[[[3,5-bis(trifluoromethyl)-1H-pyrazol-1-yl]phenyl]methyl]amino]benzonitrile]
  pIC50: 5.14
Concentration 10 μm (in parentheses in the cell)
  % Inhibition of proliferation (at concentrations of 1,10, or 100 μm): 47(10) %

## Fc1ccc(/N=C/c2ccc(-n3nc(C(F)(F)F)cc3C(F)(F)F)cc2)c(F)c1 [Example 97, (E)-N-[4-[3,5-bis(trifluoromethyl)-1H-pyrazol-1-yl]phenylmethylene]-2,4-difluorobenzenamine]
[4]
  inhibition at 10 µM: 20%

## COc1ccc(C(=O)Nc2ccc(-n3nc(C(F)(F)F)cc3C(F)(F)F)cc2)cc1OC [Example 98, N-[4-[3,5-bis(trifluoromethyl)-1H-pyrazol-1-yl]phenyl]-3-4-dimethoxybenzamide]
  pIC50: 5.31
[5]
  % Inhibition of proliferation (at concentrations of 1,10, or 100 μm): 94(100) %

## Fc1ccc(NCc2ccc(-n3nc(C(F)(F)F)cc3C(F)(F)F)cc2)c(F)c1 [Example 108, 4-[3,5-bis(trifluoromethyl)-1H-pyrazol-1-yl]-N-(2,4-difluorophenyl)benzenemethanamine]
[3]
  inhibition at 1 µM: 18%

## CCCCCCCc1ccc(C(=O)Nc2ccc(-n3nc(C(F)(F)F)cc3C(F)(F)F)cc2)cc1 [Example 111, N-[4-[3,5-bis(trifluoromethyl)-1H-pyrazol-1-yl]phenyl]-4-heptybenzamide]
  pIC50: 4.39
[5]
  % Inhibition of proliferation (at concentrations of 1,10, or 100 μm): 76(100) %

## CNC(=O)c1ccccc1C(=O)Nc1ccc(-n2nc(C(F)(F)F)cc2C(F)(F)F)cc1 [Example 115, N-[4-[3,5-bis(trifluoromethyl)-1H-pyrazol-1-yl]phenyl]-N′-methyl-1,2-benzenedicarboxamide]
[2]
  inhibition at 100 µM: 71%
Homo sapiens, PBMC
  pIC50: 4.29

## CC(C)(C)OC(=O)N1CCC(C(=O)Nc2ccc(-n3nc(C(F)(F)F)cc3C(F)(F)F)cc2)CC1 [Example 120, 1,1-Dimethylethyl 4-[[[4-[3,5-bis(trifluoromethyl)-1H-pyrazol-1-yl]phenyl]amino]carbonyl]-1-piperidinecarboxylate]
[2]
  inhibition at 100 µM: 100%
Homo sapiens, PBMC
  pIC50: 6.31

## O=C(Nc1ccc(-n2nc(C(F)(F)F)cc2C(F)(F)F)cc1)c1ccccn1 [Example 121, N-[4-[3,5-bis(trifluoromethyl)-1H-pyrazol-1-yl]phenyl]-2-pyridinecarboxamide]
[2]
  inhibition at 100 µM: 53%
Homo sapiens, PBMC
  pIC50: 4.98

## CCN(CC)c1ccc(C(=O)Nc2ccc(-n3nc(C(F)(F)F)cc3C(F)(F)F)cc2)cc1 [Example 122, N-[4-[3,5-bis(trifluoromethyl)-1H-pyrazol-1-yl]phenyl]-4-(diethylamino)benzamide]
[3]
  inhibition at 1 µM: 15%

## O=C(Nc1ccc(-n2nc(C(F)(F)F)cc2C(F)(F)F)cc1)C1CCCC1 [Example 123, N-[4-[3,5-bis(trifluoromethyl)-1H-pyrazol-1-yl]phenyl]cyclopentanecarboxmide]
  pIC50: 6.59
[5]
  % Inhibition of proliferation (at concentrations of 1,10, or 100 μm): 99(100) %

## O=C(Nc1ccc(-n2nc(C(F)(F)F)cc2C(F)(F)F)cc1)C1CCCCC1 [Example 124, N-[4-[3,5-bis(trifluoromethyl)-1H-pyrazol-1-yl]phenyl]cyclohexanecarboxmide]
  pIC50: 6.55
[5]
  % Inhibition of proliferation (at concentrations of 1,10, or 100 μm): 99(100) %

## N#Cc1cccc(NCc2ccc(-n3nc(C(F)(F)F)cc3C(F)(F)F)cc2)c1 [Example 128, 3-[[[4-[3,5-bis(trifluoromethyl)-1H-pyrazol-1-yl]phenyl]methyl]amino]benzonitrile]
[3]
  inhibition at 1 µM: 25%

## O=C(Nc1ccc(-n2nc(C(F)(F)F)cc2C(F)(F)F)cc1)c1cc([N+](=O)[O-])cc([N+](=O)[O-])c1 [Example 134, N-[4-[3,5-bis(trifluoromethyl)-1H-pyrazol-1-yl]phenyl]-3,5-dinitrobenzamide]
[5]
  inhibition at 100 µM: 100%
  pIC50: 5.56
